Reference: US20170071901A1, “METHODS AND FORMULATIONS FOR INCREASING CHEMICAL STABILITY AND BIOLOGICAL ACTIVITY OF PHENOLIC COMPOUNDS” (priority 2015, published 2017)
“Also recorded” adds a separate entry of the source. Like-named read-outs stand apart in the source and are kept apart here.

Columns and labels:
MC38 colon cancer cells [1] = assay: MC38 colon cancer cell proliferation (MTT assay); assay type: cell-based; details: for effect of antioxidant alone on MC38 cell proliferation: 3.9-62.5 μM antioxidant alone; for effect of antioxidant alone on MC38 cell proliferation / effect of antioxidant on anti-proliferative effect of curcumin: 24 h; for effect of antioxidant on anti-proliferative effect of curcumin: MC38, curcumin 20 μM with antioxidant (3.9 μM each, FIG. 4D); for inhibition at 10 µg/mL: Mus musculus
Protocol: MC38 colon cancer cells (a gift from Prof. Ajit Varki at the University of California, San Diego) were plated into 96-well plates (6,000 cells per well) in 100 μL Dulbecco's Modified Eagle Medium (DMEM, purchased from Lonza, Allendale, N.J.) fortified with 10% Fetal Bovine Serum ([…], purchased from Coming Inc., Corning, N.Y.) and allowed to attach overnight. […] Nitteranon, V.; Chan, L. Y.; Parkin, K. L. Glutathione conjugation attenuates biological activities of 6-dehydroshogaol from ginger. Food Chem. 140:1-8; 2013, which is incorporated by reference herein in its entirety and for all purposes.

NF-kB signaling = assay: LPS-induced NF-kB signaling in RAW 264.7 macrophage cells; assay type: cell-based
MC38 colon cancer cells [2] = assay: Cell cycle progression and apoptosis in MC38 colon cancer cells; assay type: cell-based; details: MC38, 24 hour treatment
[3] = system: LPS-induced NO production; assay: LPS-induced NO production in RAW 264.7 macrophage cells; assay type: cell-based
iNOS = assay: LPS-induced expression of iNOS in RAW 264.7 macrophage cells; assay type: cell-based
[4] = for stability of the compound in phosphate buffer (HPLC): 25 μM of each compound, 0.1 M phosphate buffer pH 7.4
COX-2 = details: RAW 264.7 macrophage cells
[5] = system: advanced pancreatic cancer; details: human, daily intake of 8 grams; cited from earlier work
physchem = details: 0.1 M phosphate buffer, pH 7.4
[6] = aqueous buffer, background statement; cited from earlier work
[7] = system: Cadmium-induced hepatotoxicity; details: rats; 200-400 mg/kg curcumin alone, 400 mg/kg ascorbate alone, or their combination; cited from earlier work
[8] = Plasma concentration of curcumin in mice after i.p. injection (HPLC); assay type: in vivo; details: male, Swiss Webster, mouse, intraperitoneal, 20 mg/kg
Protocol: After 1 h, the mice were sacrificed to harvest the blood. The harvested blood was centrifuged at 1,200 g for 10 min at 4° C. to prepare the plasma fraction; then 200 μL plasma was immediately extracted with 400 μL ethyl acetate, the ethyl acetate extract was dried and reconstituted in methanol for HPLC analysis.
The mobile phase consisted methanol with 0.1% acetic acid (mobile phase B) and water with 0.1% acetic acid (mobile phase A).

[9] = Curcumin stability in serum-free basal DMEM medium (HPLC); assay type: physicochemical
Text: (A1-A6) Representative microscope images of the treated cells. […] The results are mean ±SD, The samples designated with different letters are statistically different (P <0.05).

colorectal cancer = details: human, cited from earlier work
[10] = 25 μM curcumin, 0.1 M phosphate buffer, with or without 150 μM antioxidant, HPLC, % of time 0

Cc1c(C)c2c(c(C)c1O)CCC(C)(C(=O)O)O2 (stereo not drawn) [Trolox]
effect of antioxidant alone on MC38 cell proliferation (MC38 colon cancer cells [1]): no effect | effect of antioxidant on anti-proliferative effect of curcumin (MC38 colon cancer cells [1]): significantly increased anti-proliferative effects of curcumin

O=C(/C=C/c1ccc(O)c(O)c1)O[C@H](Cc1ccc(O)c(O)c1)C(=O)O [rosmarinic acid]
effect of antioxidant on anti-proliferative effect of curcumin (MC38 colon cancer cells [1]): significantly increased anti-proliferative effects of curcumin

bicyclopentadione [BCP]
inhibition of LPS-induced NF-kB signaling (IKK phosphorylation, IκBα degradation, nuclear translocation of p65) (NF-kB signaling): neither TDP nor BCP had such inhibitory effect | G2 cell cycle arrest and apoptosis (MC38 colon cancer cells [2]): neither TDP nor BCP had such effects | inhibition of LPS-induced NO production [3]: no effect | inhibition of cancer cell proliferation in the tested dose range (MC38 colon cancer cells [1]; MC38, 10-40 μg/mL, 24-72 h treatment): completely inactive | inhibition of LPS-induced expression of iNOS (iNOS): no effect

COc1ccc(C=CC(=O)CC(=O)C=Cc2ccc(OC)c(OC)c2)cc1OC [dimethoxy curcumin, 1,7-bis(3,4-dimethoxyphenyl)-1,6-heptadiene-3,5-dione]
stability of the compound in phosphate buffer (HPLC) [4]: very stable

O=C1O[C@H]([C@@H](O)CO)C(O)=C1O [ascorbate]
effect of antioxidant alone on MC38 cell proliferation (MC38 colon cancer cells [1]): no effect

CC(C)(C)c1cc(O)ccc1O [TBHQ, tert-butylhydroquinone]
effect of antioxidant on anti-proliferative effect of curcumin (MC38 colon cancer cells [1]): significantly increased anti-proliferative effects of curcumin

COc1cc(/C=C/C(=O)CC(=O)/C=C/c2ccc(O)c(OC)c2)ccc1O [curcumin]
inhibition of LPS-induced expression of inflammatory protein COX-2 (COX-2): inhibited | anti-cancer efficacy in advanced pancreatic cancer [5]: demonstrates anti-cancer efficacy in some patients | half-life at 25 μM (physchem): < 10 min | half-life of curcumin at physiological pH [6]: several minutes | inhibition of LPS-induced NF-kB signaling (IKK phosphorylation, IκBα degradation, nuclear translocation of p65) (NF-kB signaling): inhibited LPS-induced activation of NF-kB signaling | effect on Cadmium-induced hepatotoxicity [7]: no effect | degradation of curcumin in the buffer (HPLC) ([4]; 25 μM curcumin, 0.1 M phosphate buffer pH 7.4, after ~12-min incubation): 80-90% | curcumin remaining in the phosphate buffer after 24-h incubation [4, 10]: ~5.9% | curcumin remaining in the phosphate buffer after 48-h incubation [4, 10]: ~4.2% | stability of the compound in phosphate buffer (HPLC) [4]: rapidly degraded | G2 cell cycle arrest and apoptosis (MC38 colon cancer cells [2]): significantly induced G2 cell cycle arrest and apoptosis | concentration at 1 h [8]: 0.0148 ± 0.016 µM | inhibition of LPS-induced NO production [3]: inhibited LPS-induced NO production in a dose-dependent manner | inhibition at 10 µg/mL (MC38 colon cancer cells [1]; MC-38, 24 h, read-out: inhibition of MC38 proliferation after 24 h treatment): ~60% | inhibition at 10 µg/mL (MC38 colon cancer cells [1]; MC-38, read-out: inhibition of MC38 proliferation after 48-72 h treatment): > 95% | stability of curcumin in basal medium [9]: rapidly degraded | effect in Phase IIa trial of colorectal cancer at 2 grams/day (colorectal cancer; 2 grams/day): no effect | effect in Phase IIa trial of colorectal cancer at 4 grams/day (colorectal cancer; 4 grams/day): only inhibited aberrant crypt foci; also recorded: only reduced colorectal cancer risks | reduction of aberrant crypt foci (colorectal cancer; daily intake of 4 grams of curcumin for a month): ~40% | inhibition of LPS-induced expression of iNOS (iNOS): dose-dependently inhibited

O=C(O)/C=C/c1ccc(O)c(O)c1 [caffeic acid]
effect of antioxidant on anti-proliferative effect of curcumin (MC38 colon cancer cells [1]): significantly increased anti-proliferative effects of curcumin

O=C(O)c1cc(O)c(O)c(O)c1 [gallic acid]
effect of co-added antioxidant on curcumin stability (colorimetric assay, absorbance 420 nm) ([4]; 25 μM curcumin, phosphate buffer, dose of antioxidants 15 and 1.50 μM as printed): dramatically increased curcumin stability | effect of co-added antioxidant on long-term stability of curcumin ([4]; 24-h and 48-h incubation, antioxidant 150 μM, 25 μM curcumin, phosphate buffer, HPLC): significantly increased long-term stability of curcumin | effect of antioxidant on anti-proliferative effect of curcumin (MC38 colon cancer cells [1]): significantly increased anti-proliferative effects of curcumin

O=C([O-])CN(CCN(CC(=O)O)CC(=O)O)CC(=O)[O-].[Na+].[Na+] [EDTA, disodiumethylenediaminetetra acetic acid]
protective effect of EDTA on curcumin stability (HPLC) ([4]; EDTA even at a dose as high as 200 μM, phosphate buffer): little protective effect
